Data taken from patent publication US20240116986A1, “FUSION PEPTIDES CONTAINING DIMERIC ALPHA-HELICES, PEPTIDE-MOLECULARCONJUGATES CONTAINING THE SAME AND NUCLEIC ACID DELIVERY COMPOSITIONSCONTAINING THE SAME” (Artprobio Co., Ltd., priority 2022, published 2024).
Where two headings read alike, the source gives them in different places.

Assays:
[1] = tested on: ssDNA PolyT40; experiment: EMSA with ssDNA PolyT40; assay type: binding
[2] = tested on: EGFP mRNA; experiment: EMSA of nanostructure formation with EGFP mRNA; assay type: binding
Protocol: (§1) When a nanostructure was formed through self-assembly by reacting a peptide-molecule conjugate (SAB) with a nucleic acid material (dsDNA or mRNA), agarose gel EMSA was conducted to measure their interactions, binding ratio, stability, etc.
First, the nucleic acid material of a fixed concentration (100 fmol mRNA) was reacted with the peptide-molecule conjugate (SAB) of various concentrations. Immediately before mixing with the nucleic acid material, the peptide-molecule conjugate (SAB) was sonicated for 5 minutes to prevent self-aggregation. The sonicated peptide-molecule conjugate (SAB, 5 μL) was added to the nucleic acid material ([…]) and a nanostructure was prepared by adding distilled water. The sample was prepared by snap cooling. Specifically, after heating at 70° C. for 10 minutes and snap-cooling on ice, the prepared sample was stored at room temperature. The stored sample was mixed with 2 μL of 60% glycerol. Electrophoresis was performed at 100 V for 60 minutes on 0.8% agarose gel using 1×TBE. The band was observed after staining with SYBR™ Gold nucleic acid gel stain (Invitrogen, Waltham, USA).
After sonicating the peptide-molecule conjugate (SAB-gn, n=1 to 6) aqueous solution for 5 minutes, it was immediately mixed with an EGFP mRNA (200 μL) solution. […] An […] nanostructure was prepared as follows by mixing the peptide-molecule conjugate (SAB-gn, n=1 to 6) with the EGFP mRNA. […] The EGFP mRNA and the peptide-molecule conjugate (SAB-gn, n=1 to 6) were mixed at a charge ratio (+/−) of 0, 0.008, 0.016, 0.031, 0.063, 0.125, 0.25, 0.5, 1, 2, 4, 8, 16, 32 or 50.
After incubating the mixture solution overnight and centrifuging at 16,100 g for 30 minutes, the mixture was resuspended in deionized water. After washing twice, the resulting nanostructure was analyzed by EMSA.
After incubating the mixture solution overnight and centrifuging at 16,100 g for 30 minutes, the mixture was resuspended in deionized water.
After heating the mixed solution for 10 minutes at 70° C., it was immediately snap-cooled on ice. RiboRuler Low Range RNA Ladder and RiboRuler High Range RNA Ladder (Thermo Scientific, Waltham, USA) were used on the two lanes on the left side of agarose gel in order to identify the relative locations of the EGFP mRNA bands. The bands of the RiboRuler Low Range RNA Ladder correspond to 1000, 800, 600, 400, 300, 200 and 100 bases, from top to bottom, and the bands of the RiboRuler High Range RNA Ladder correspond to 6000, 4000, 3000, 2000, 1500, 1000, 500 and 200 bases, from top to bottom. Then, the mixtures with charge ratios (+/−) of 0, 0.031, 0.063, 0.125, 0.25, 0.5, 1, 2, 4, 8 and 16 were loaded in sequence.
After heating the mixed solution for 10 minutes at 70° C., it was immediately snap-cooled on ice. RiboRuler High Range RNA Ladder (Thermo Scientific, Waltham, USA) was used on the left side of agarose gel in order to identify the relative locations of the EGFP mRNA bands. The bands of the RiboRuler High Range RNA Ladder correspond to 6000, 4000, 3000, 2000, 1500, 1000, 500 and 200 bases, from top to bottom. Then, the samples were loaded with charge ratios (+/−) of 00, 0.063, 0.125, 0.25, 0.5, 1, 2, 4, 8, 16 and 32 in sequence.

[3] = tested on: linear double-stranded DNA (dsDNA) (7528 base pairs); experiment: EMSA of nanostructure formation with dsDNA; assay type: binding
Protocol: as §1
For this, a pTWIN1 plasmid DNA vector was purchased from New England BioLabs (Ipswich, USA), genetically recombined to express a specific protein (Rev), and then linearized with a BamH1 restriction enzyme purchased from the same company to prepare a linear double-stranded DNA (dsDNA) (7528 base pairs). The peptide-molecule conjugates of Examples 1-3 (SAB1 to SAB3) were dispersed in distilled water to prepare 20 μM aqueous solutions. The SAB1 to SAB3 aqueous solutions (20 μM, 50 μL) were sonicated for at least 5 minutes and then immediately added to the dsDNA solution (200 μL). […] A SAB2/dsDNA nanostructure was prepared by incubating the mixture overnight. Then, after centrifuging at 16,100 g for 30 minutes, the nanostructure was resuspended in deionized water. After washing twice, the nanostructure was analyzed by TEM and EMSA.

[4] = Coating of gold nanoparticles (TEM); settings: citrate-modified AuNP aqueous solution
Protocol: Colloidal gold was prepared by reducing HAuCl4 with sodium citrate. 50 mL of a 0.01% HAuCl4 (0.243 mM) aqueous solution was boiled vigorously while stirring in a round-bottom flask equipped with a reflux condenser. Then, 10 mL of a 0.1% sodium citrate aqueous solution (3.4 mM) was added to the boiling HAuCl4 solution. The color of the solution turned from yellow to deep purple and then to wine red within 3 minutes. The mixture was boiled further for 10 minutes and cooled to room temperature while continuously stirring overnight. The concentration of the colloidal gold was determined with a spectrophotometer.
It was investigated whether the gold nanoparticles (AuNP) prepared above are coated with the peptide-molecule conjugates prepared in Examples 1-3 (SAB1 to SAB3). First, the peptide-molecule conjugates of Examples 1-3 (SAB1 to SAB3) were dispersed in distilled water to prepare 20 μM aqueous solutions, respectively. After sonicating the SAB1 to SAB3 aqueous solutions (20 μM, 50 μL) for at least 5 minutes, they were immediately added to the AuNP solution (200 μL), respectively. […] After washing twice, the solution was analyzed by CD and TEM.

[5] = tested on: ssDNA PolyT100
Protocol: The concentration of the ssDNA was fixed and the concentration of the peptide-molecule conjugate aqueous solution was varied based on the nucleobase ratio.
After incubating the mixture of the peptide-molecule conjugate and ssDNA overnight, it was analyzed by EMSA.

[6] = tested on: ssDNA PolyT200; experiment: EMSA with ssDNA PolyT200; assay type: binding
Protocol: The peptide-molecule conjugates of Examples 16, 17 and 18 (Glc2-AA-U2, Glc2-AA-U4, Glc2-AA-U6) were dispersed in distilled water. […] After preparing the mixtures of the peptide-molecule conjugates of Examples 16, 17 and 18 (Glc2-AA-U2, Glc2-AA-U4, Glc2-AA-U6) and the ssDNA PolyT200 (5 μL) at the nucleobase ratios described above, they were analyzed by EMSA.
The aqueous solution of the peptide-molecule conjugate of Example 19 (Glc2-AA-U8) was sonicated for 5 minutes or heated at 90° C. for 5 minutes, respectively. The heated peptide-molecule conjugate was indicated by ‘heat’.
The mixtures prepared by mixing the peptide-molecule conjugate of Example 19 (Glc2-AA-U8) aqueous solution (sonicated or heated) and ssDNA PolyT200 (5 μL) at nucleobase ratios of 20, 30 or 40 were analyzed by EMSA.

For “Ac-(PEG8)-AELAALEAELAALE(Ahx)2-E (adenine)E (adenine)-(Ahx)2-KLAALKAKLAALKAG-(PEG8) [PEG82-AA-U0]”, the “electrophoretic mobility (EMSA)” value ([1]; nucleobase ratio 1280:1, compared with Example 12) was “delayed relatively more”.
With “Ac-(PEG8)-AELAALEAELAALE-(Ahx)2-E (adenine)-(Ahx)2-KLAALKAKLAALKAG-(PEG8) [PEG82-A-U0]” the “electrophoretic mobility (EMSA)” value ([1]; nucleobase ratio 640) was “delayed slightly”.
With “Ac-(PEG8)-AELAALEAELAALE-(Ahx)2-K-(Ahx)2-KLAALKAKLAALKAG-(PEG8)-NH2 [SAB2]” the “+/− (optimum charge ratio of EGFP mRNA and conjugate showing completely delayed electrophoretic mobility)” value ([2]; EMSA, mRNA concentration fixed, incubated overnight) was 30, the “nanostructure formation with dsDNA” value [3] was “best result” and the “charge ratio (+/−) from which delay of EMSA band was observed” value ([3]; dsDNA concentration fixed) was 0.031. For the same substance, the “charge ratio at which SAB2/dsDNA nanostructure was prepared through self-assembly” value ([3]; dsDNA concentration fixed) was 0.5 and the “dispersibility of coated gold nanoparticles” value [4] was “precipitates were formed due to aggregation of the gold nanoparticles”.
For “Glucose-GS-AELAALEAELAALE-(Ahx)2-E (adenine)-E (adenine)-(Ahx)2-KLAALKAKLAALKAG-GS [Glc1-AA-U0]”, the “electrophoretic mobility (EMSA)” value ([5]; nucleobase ratio 40:1, compared with Example 15) was “delayed relatively more” and the “electrophoretic mobility (EMSA)” value ([5]; nucleobase ratio 80:1) was “delayed completely”.
With “Glucose-GS-AELAALEAELAALE-(Ahx)2-E (thymine)-E (thymine)-(Ahx)2-KLAALKAKLAALKAG-GS [Glc1-TT-U0]” the “electrophoretic mobility (EMSA)” value ([5]; nucleobase ratio 80:1) was “no electrophoretic mobility was observed”.
For “Glucose-GS-AELUALEUELAULE-(Ahx)2-E (adenine)E (adenine)-(Ahx)2-KLUALKUKLAULKAG-K (glucose) [Glc2-AA-U6]”, the “nanostructure formation (EMSA)” value ([6]; different nucleobase ratios (20-100)) was “formed successfully”.
For “Glucose-GS-UELUALEUELAULE-(Ahx)2-E (adenine)E (adenine)-(Ahx)2-KLUALKUKLAULKUG-K (glucose) [Glc2-AA-U8]”, the “nanostructure formation with EGFP mRNA (EMSA)” value ([2]; four conjugates used together (AA 6%, CC 21%, GG 26%, TT 47%), nucleobase ratio 1:1-1:15) was “successfully forms the nanostructure” and the “nanostructure formation (EMSA) after sonication or heating of conjugate” value ([6]; nucleobase ratios 20, 30 or 40, sonicated 5 minutes or heated at 90° C. 5 minutes) was “successfully binding to ssDNA PolyT200”.
